PubChem BioAssay (NCI)
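Dose response: 5 concentrations. Exposure: 48 h. Format: 96-well plates. Endpoint: linear interpolation; highest concentration if not reached. The concentration for 50% growth inhibition is given as GI50. TGI: concentration producing complete growth inhibition.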

How the values were obtained:
Test in all cases: DTP human tumour cell line panel, 48 h
[1] = test system: SF-539 CNS
[2] = test system: K-562 leukemia
[3] = test system: HCT-116 colon
[4] = test system: SK-MEL-28 melanoma
[5] = test system: OVCAR-3 ovarian
[6] = test system: SN12C renal
[7] = test system: SK-OV-3 ovarian
[8] = test system: MCF7 breast
[9] = test system: SF-268 CNS
[10] = test system: ACHN renal

| SMILES | GI50 [1] | TGI [1] | GI50 [2] | TGI [2] | GI50 [3] | TGI [3] | GI50 [4] | TGI [4] | GI50 [5] | TGI [5] | GI50 [6] | TGI [6] | GI50 [7] | TGI [7] | GI50 [8] | TGI [8] | GI50 [9] | TGI [9] | GI50 [10] | TGI [10] |
| --- | --- | --- | --- | --- | --- | --- | --- | --- | --- | --- | --- | --- | --- | --- | --- | --- | --- | --- | --- | --- |
| COc1cc2c3c(n(CCCN)c(=O)c2cc1OC)-c1ccc(N)cc1C3=O | 0.302 µM | 1.61 µM | 0.155 µM | 12 µM | 0.339 µM | 1.35 µM | 2.16 µM | 14.7 µM | 2.12 µM | > 29.6 µM | 2.98 µM | 27.3 µM | 2.52 µM | 17.9 µM | 1.66 µM | > 38.2 µM | 1.64 µM | 31.6 µM | 5.9 µM | 37.8 µM |
| COc1cc(/C=C/c2cc(/C=C/c3ccc(O)c(OC)c3)n(C(=O)Nc3ccc(C)cc3)n2)ccc1O | 0.442 µM | 2.47 µM | 0.359 µM |  | 0.296 µM | 1.53 µM | 0.797 µM | 6.87 µM | 0.417 µM | 1.99 µM | 0.408 µM | > 29.9 µM | 0.451 µM | 1.79 µM | 0.4 µM | 2.97 µM | 0.628 µM | 7.44 µM | 0.396 µM | 7.42 µM |
| CN1CCN(C(=O)/C=C/c2ccc([N+](=O)[O-])o2)CC1 | 15 µM | 45 µM | 11 µM | 40.4 µM | 10.5 µM | 22.4 µM | 9.59 µM | 49.3 µM | 12.9 µM | 26.2 µM | 13.8 µM | 27.9 µM | 29 µM | > 100 µM | 10.9 µM | 38.1 µM | 20.9 µM | 84.1 µM | 3.29 µM | 13.1 µM |
| O=C1c2ccccc2-c2c1c1c(O)cccc1n2Cc1ccccc1 | 14.2 µM | 35.3 µM | 22.8 µM | > 100 µM | 11.8 µM | > 100 µM | 20.8 µM | 62.4 µM | 4.17 µM | 17.3 µM | 14.1 µM | > 100 µM | 14.5 µM | 41.7 µM | 6.75 µM | 30.8 µM | 6.58 µM | 37.9 µM | 6.9 µM | 23.8 µM |
| O=C(CCN1CCOCC1)Nc1ccc(Cn2nnc3c2C(=O)c2nnn(Cc4ccc(NC(=O)CCN5CCOCC5)cc4)c2C3=O)cc1 | 0.913 µM | 5.11 µM | 1.81 µM | > 100 µM | 0.384 µM | > 100 µM |  |  | 0.333 µM | 1.39 µM | 0.52 µM | 2 µM | > 84 µM | > 100 µM | 0.271 µM | 0.978 µM | 1.28 µM | > 100 µM | > 100 µM | > 100 µM |
| COc1cc(NC(=O)COc2ccccc2)c(C(N)=O)cc1OC | 0.563 µM | 3.59 µM | 0.31 µM | > 100 µM | 0.62 µM | > 100 µM | 24.2 µM | > 100 µM | 0.472 µM | 10.5 µM | 3.12 µM | > 100 µM | 3.58 µM | 22.7 µM | 0.661 µM | > 100 µM | 6.77 µM | 45.7 µM | 8.12 µM | > 100 µM |
